# Experimental data reported in patent publication US20220244245A1, “A METHOD OF PROFILING THE ENERGETIC METABOLISM OF A POPULATION OF CELLS” (INSERM (Institut National de la Santé et de la Recherche …, priority 2019, published 2022).
# How the values were obtained:
# Flt3L-bmDC = experiment: ZENITH: protein synthesis (puromycin incorporation, flow cytometry) in Flt3L-bmDC subsets, WT and PERK KO; assay type: cell-based, mouse; settings: short 2-DG treatment; DC subsets from WT PERKflox/flox and CD11c-CRE PERKflox/flox (PERK KO)
# Experimental: Mouse splenocytes from WT C57BL/6J (Jackson) or PERK KO C57BL/6J background mice (Zhang et al., 2002) were cultured in DMEM containing 5% of Fetal Calf Serum (FCS) and 50 μM of 2-Mercaptoethanol (Mouse cells culture media, MCCM) at 37° C. 5% of CO2 GM-CSF BM-derived dendritic cells (GM-bmDCs) were differentiated in vitro from the bone marrow of 6-8-week-old male mice, using GM-CSF, produced by J558L cells. Bone marrow progenitors were plated at 0.8×10^6 cells/ml, 5 ml/well in 6-well plates, and cultivated with RPMI (GIBCO), 5% FCS (Sigma-Aldrich), 20 μg/ml gentamycin (Sigma-Aldrich), 50 μM β-mercaptoethanol (VWR), and GM-CSF. The medium was replaced every 2 days; BM-derived DCs were used for experiments at day 6. Similarly, FLT3L BM-derived dendritic cells (FLT3L-bmDCs) were differentiated by adding FLT3L to RPMI, 10% of Fetal Calf Serum (FCS) and 50 μM of 2-Mercaptoethanol (Mouse cells culture media, MCCM) during 6 days at 37° C. 5% of CO2. To obtain splenocytes, eight weeks old wild type C57BL/6J mice were sacrificed by cervical dislocation and splenectomized. Single cells suspentions from the spleens were generated and cultured in MCCM as previously described. […]
# Flow cytometry was conducted using BD LSR II and BD LSR Fortessa X-20 machine (BD Biosciences™) and data were analyzed with FlowJo (Tree Star™) and/or Cytobank. […]
# MEFs = experiment: ATP measurement (Cell titer-Glo luminescence) in MEFs; assay type: cell-based, mouse
# Experimental: 20×104 MEFs were seeded in 100 µl of 5% FCS DMEM culture media ON in opaque 96 well plates. After, 100 ul of Cell titer-Glo luminiscence ATP reconstituted buffer and substrate (Promega, Cat. No. G7570) was added to each well and Luminiscence was measured after 10 minutes following manufacturer instructions. A standard curve with ATP was performed using the same kit and following manufacturer instructions.
compound,measurement,setting,value
"O=CC[C@@H](O)[C@H](O)[C@H](O)CO [2-DG, 2-Deoxy-D-Glucose]",protein synthesis in response to 2-DG,Flt3L-bmDC,decrease protein synthesis
"C[C@@H]1C[C@@H]([C@H](O)CC2CC(=O)NC(=O)C2)C(=O)[C@@H](C)C1 [CHX, Cycloheximide]",pool of ATP,"MEFs; MEFs, added on top of Oligo+2-DG, 5 minutes of treatment, compared to Oligo+2-DG treatment (Co), FIG. 2A",significantly higher
CC[C@H]1/C=C/C=C/C[C@@H](C)[C@H](O)[C@@](C)(O)C(=O)[C@@H](C)[C@H](O)[C@@H](C)C(=O)[C@@H](C)[C@H](O)[C@@H](C)/C=C/C(=O)O[C@@H]2[C@H](C)[C@H](CC1)O[C@]1(CC[C@H](C)[C@H](C[C@@H](C)O)O1)[C@H]2C [Oligomycin],levels of ATP,"MEFs; MEFs treated 20-30 minutes with the metabolic inhibitor, FIGS. 3A and 3B",unchanged
